The values that follow come from publication PMC10442912 (2023).

Test [1] concerns CAP1 (DNA, aptamer) CGACATAGAGGATCCATCTTGGGGTGTGTAGTGTGTCG
As to the kind of experiment: fluorescence titration. The note with it: 10 mM Mg2+; 20 mM Tris-HCl pH 7.8; CAP1 titrated into 2.5 μM ThT.

The test system is the same in test [2]. The test is described as follows: ITC. As to conditions: 300 mM Na+, 5 mM K+, 10 mM Mg2+; 50 mM Tris-HCl pH 7.8, 25 °C, preannealed.
Test [3] shares this test system. The test is described as follows: ThT fluorescence displacement. As to conditions: 10 mM Mg2+; 50 mM Tris-HCl pH 7.8; 1 μM aptamer, 0.5 μM ThT displaced.
Test [4] has as its system CAP3 (DNA, aptamer) CGACCTAGTGTCCATCGTTCAGTTCCGATTTCTGGTCG
As to the kind of experiment: ThT fluorescence displacement. The note with it: 10 mM Mg2+; 50 mM Tris-HCl pH 7.8; 1 μM aptamer, 0.5 μM ThT displaced.

The Kd is a measure of binding affinity in units of concentration.

In test [1], `Cc1ccc2c(c1)sc(-c1ccc(N(C)C)cc1)[n+]2C` returned a Kd of 2.3 µM.
As for `O=C(N[C@H](CO)[C@H](O)c1ccc([N+](=O)[O-])cc1)C(Cl)Cl`, the values for the Kd in test [2], in test [3] and in test [4] were 9.8 ± 0.5 µM, 4.2 µM and 46 µM, respectively.
